Tests used:
[1] = tested on: JRCSF WT envelope reporter virus; format: cell-based, HIV
Excerpt: A DNA expression vector comprising the envelope protein of HIV strain JRCSF was constructed using a commercially available pCI-neo vector (Promega, Madison, Wis.). JRCSF is a primary isolate obtained from an HIV patient which was deposited with the NIH AIDS Research & Reference Reagent Program (Cat. No. 2708). The JRCSF envelope open reading frame was amplified by standard PCR using the following primers: […]
These primers initiate priming at codon 2 of the envelope open reading frame and immediately downstream of the envelope termination codon, respectively. They contain restriction enzymes recognition sequences suitable for directional cloning into the pCI-neo vector. This JRCSF envelope protein expression vector was used in Example 6 below as the WT control. […]
Viral infections were carried out in a human malignant glioma (U87) target cell expressing the human CD4 receptor and the human CCR5 chemokine receptor. […] After 3 days the level of luciferase expressed in target cells was measured using a luciferase reporter gene assay reagent (Promega, Madison, Wis.), as described by the manufacturer. […]

[2] = tested on: T-20-resistant JRCSF envelope variant G36D reporter virus; format: cell-based, HIV
Excerpt: (§1) In addition, three single amino acid substitutions, G36D, V38A and N43D, known to confer T-20 resistance for HIV were introduced into the JRCSF open reading frame by site-directed mutagenesis (QuikChange II kit, Stratagene, La Jolla, Calif.), thereby generating three T-20-resistant HIV envelope protein expression vectors called […], V38A and N43D.
(§2) HIV reporter viruses for purposes of this experiment were constructed from: (1) the JRCSF WT envelope protein vector, (2) the T-20-resistant envelope protein variants G36D, V38A, or N43D generated in Example 4; or (3) the patient derived HIV envelope protein population of vectors from KJM (Day 1) or KJM (Week9) generated in Example 5. The reporter viruses were produced by co-transfecting the human embryonic kidney cell line HEK293FT (Invitrogen, Carlsbad, Calif.) with the envelope vectors described above and an envelope-deficient proviral DNA encoding a luciferase reporter gene. The cells were propagated in Dulbecco's Modified Eagle Medium (Invitrogen, Carlsbad, Calif.) supplemented with 10% fetal bovine serum (Invitrogen, Carlsbad, Calif.). Transfections were performed using Lipofectamine 2000 (Invitrogen, Carlsbad, Calif.). Culture supernatants were harvested 48 hours post-transfection and filtered through a 0.45 micron filter prior to infecting target cells.
(§3) Viral infections were carried out in a human malignant glioma (U87) target cell expressing the human CD4 receptor and the human CCR5 chemokine receptor. Target cells were seeded into 96-well plates at a density of 3000 cells/well in Dulbecco's Modified Eagle Medium (Invitrogen, Carlsbad, Calif.) supplemented with 10% fetal bovine serum (Invitrogen. Carlsbad, Calif.) and cultured for […]. Target cells were then exposed to the virus generated in Example 6 mixed with varying concentrations of the entry inhibitors T-20 or an anti-CD4 MAb in a final volume of 40-80 microliters. Infection was triggered by centrifugation of the 96-well plates at 1200*g for 1.5-2.0 hours at 25° C. (i.e. spinoculation). After spinoculation, culture medium was added to a final volume of […] per well and the infected cultures were incubated for 3 days at 37° C. After 3 days the level of luciferase expressed in target cells was measured using a luciferase reporter gene assay reagent (Promega, Madison, Wis.), as described by the manufacturer.
(§4) Dose-response curves for the inhibition of luciferase expression by entry inhibitors were derived by fitting the luciferase data with a four-parameter logistic using Origin 7 Client software (OriginLab, Northampton, Mass.). Each dose-response experiment comprised a nine point concentration curve plus untreated controls, all assayed in triplicate wells (raw data not shown). For each EC50 determination, the results of three or more independent experiments were used to calculate the average EC50 and standard error values.

[3] = tested on: T-20-resistant JRCSF envelope variant N43D reporter virus; format: cell-based, HIV
Excerpt: as §1, §2, §3, §4

[4] = tested on: T-20-resistant JRCSF envelope variant V38A reporter virus; format: cell-based, HIV
Excerpt: as §1, §2, §3, §4

[5] = tested on: patient-derived envelope population KJM (day 1) reporter virus; format: cell-based, HIV; details: KJM D1 virus
Excerpt: (§5) HIV RNA was extracted from patient serum using QIAamp isolation kits (Qiagen, Hilden. Germany) and used to generate cDNA with random hexamer primers (SuperScript First Strand Synthesis System for RT-PCR, Invitrogen, Carlsbad, Calif.). HIV envelope protein open reading frame sequences were specifically amplified using a nested PCR procedure with outer PCR primers: […]
(§6) which initiate priming 239 bases upstream and 349 bases downstream of the envelope open reading frame, respectively. The inner PCR primers were the same primers used for directional cloning of the envelope sequence populations into the pCI-neo vector, as described in Example 4. The resulting PCR products represent a population of envelope sequences from HIV viruses present in two patient samples, KJM (day 1) and KJM (week 9).
as §2, §3, §4

[6] = tested on: patient-derived envelope population KJM (week 9) reporter virus; format: cell-based, HIV; details: KJM W9 virus
Excerpt: as §5, §6, §2, §3, §4

[7] = molecular target: envelope protein of HIV strain JRCSF (WT) (HIV strain JRCSF) (UniProt P20871); assay: cell-based or functional assay
[8] = molecular target: envelope protein of HIV strain JRCSF with G36D (HIV strain JRCSF) (UniProt P20871); assay: cell-based or functional assay
[9] = molecular target: envelope protein of HIV strain JRCSF with N43D (HIV strain JRCSF) (UniProt P20871); assay: cell-based or functional assay
[10] = molecular target: envelope protein of HIV strain JRCSF with V38A (HIV strain JRCSF) (UniProt P20871); assay: cell-based or functional assay
[11] = average +/- standard error, 4 determinations

Substance: enfuvirtide
- PMI [1]: 98 ± 2.4
- EC50 [1, 11]: 0.013 ± 0.0035 µg/mL
- PMI [2]: 99 ± 1.5
- Fold Change ([2]; EC50MUT/EC50WT JRCSF): 11
- EC50 [2, 11]: 0.14 ± 0.026 µg/mL
- PMI [3]: 96 ± 3.4
- Fold Change ([3]; EC50MUT/EC50WT JRCSF): 22
- EC50 [3, 11]: 0.28 ± 0.08 µg/mL
- PMI [4]: 91 ± 8.9
- Fold Change ([4]; EC50MUT/EC50WT JRCSF): 32
- EC50 [4, 11]: 0.41 ± 0.21 µg/mL
- PMI [5]: 99 ± 1.3
- EC50 [5, 11]: 0.0091 ± 0.003 µg/mL
- PMI [6]: 100 ± 0.58
- Fold Change ([6]; EC50W9/EC50D1): 0.93
- EC50 [6, 11]: 0.0085 ± 0.0027 µg/mL

Substance: T-20 (peptide)
- PMI [7]: 98%
- Fold Change (EC50MUT/EC50WT JRCSF) [8]: 11 fold
- PMI [8]: 99%
- Fold Change (EC50MUT/EC50WT JRCSF) [9]: 22 fold
- PMI [9]: 96%
- Fold Change (EC50MUT/EC50WT JRCSF) [10]: 32 fold
- PMI [10]: 91%

Source: patent publication US20090053220A1, “METHODS AND COMPOSITIONS FOR THE INHIBITION OF HIV INFECTION OF T CELLS” (priority 2006, published 2009)
